Consider one compound from the NIST ThermoML archive (doi:10.1021/je9005689).

For series [1] the following is noted: Crystal; DTA.
Series [2] in a line: Molar enthalpy of transition or fusion. The settings on record: Crystal; DSC.

Structures are written as SMILES. Numbers after ± are expanded uncertainties.

With `COc1cnc(Cl)nc1Cl` [2,4-dichloro-5-methoxypyrimidine], the Normal melting temperature in series [1] was 69.00 ± 0.5 °C. The “Molar enthalpy of transition or fusion” value in series [2] is 17.7 ± 0.42 kJ/mol.
